From patent US9018233B2, “Diaminoaryl derivatives substituted by carbamate and pesticidal composition containing same” (Kyung Nong Corporation, priority 2012, dated 2015)

What follows are molecules tested on Tobacco Cutworm Moth (Spodoptera litura) (assay: Insecticidal activities against tobacco cutworm moth measured by leaf-dip method). Conditions: 96 h, 100 ppm, after 4 days, 2nd instar larvae, leaf-dip, read-out: percent control value.
Assay type: in vivo
Procedure: In this test, larvae descended from tobacco cutworm moths (Spodoptera litura), which had been collected in 2009 near Gyeongju area and reared in the laboratory, were used. […] […] The Petri dish was stored under light condition 16:8 hours, 25±1° C. and RH 50-60%, and then the number of larvae survived were counted 24, 48, 72 and 96 hours after the inoculation. As shown in Equations 1 and 2 above, the survival rate was calculated by calibrating the larvae density after treatment with the larvae density before treatment, and the control value is calculated by subtracting the survival rate in the treatment group from the survival rate in the control group and dividing the result by the survival rate in the control group.

Q: CC(C)COC(=O)Nc1cc(Cl)cc(Cl)c1NC(=O)c1cc(Br)nn1-c1ncccc1Cl [Example 4, isobutyl (2-(3-bromo-1-(3-chloropyridin-2-yl)-1H-pyrazole-5-carboxamido)-3,5-dichlorophenyl)carbamate] was tested. Which pest or weed control at 100 ppm did it give?
A: The pest or weed control at 100 ppm was ≥ 80%.

Q: For COC(=O)Nc1cc(Cl)cc(C)c1NC(=O)c1cc(Br)nn1-c1ncccc1Cl [Example 11, methyl (2-(3-bromo-1-(3-chloropyridin-2-yl)-1H-pyrazole-5-carboxamido)-5-chloro-3-methylphenyl)carbamate], which pest or weed control at 100 ppm is on record?
A: Its pest or weed control at 100 ppm is ≥ 80%.

Q: With CCOC(=O)Nc1cc(Cl)cc(C)c1NC(=O)c1cc(Br)nn1-c1ncccc1Cl [Example 21, ethyl (2-(3-bromo-1-(3-chloropyridin-2-yl)-1H-pyrazole-5-carboxamido)-5-chloro-3-methylphenyl)carbamate] as the molecule, how does the pest or weed control at 100 ppm read?
A: The pest or weed control at 100 ppm was ≥ 80%.

Q: For CCCOC(=O)Nc1cc(Cl)cc(C)c1NC(=O)c1cc(Br)nn1-c1ncccc1Cl [Example 22, propyl (2-(3-bromo-1-(3-chloropyridin-2-yl)-1H-pyrazole-5-carboxamido)-5-chloro-3-methylphenyl)carbamate], which pest or weed control at 100 ppm is on record?
A: Its pest or weed control at 100 ppm is ≥ 80%.

Q: COC(=O)Nc1cc(C#N)cc(C)c1NC(=O)c1cc(Br)nn1-c1ncccc1Cl [Example 33, methyl (2-(3-bromo-1-(3-chloropyridin-2-yl)-1H-pyrazole-5-carboxamido)-5-cyano-3-methylphenyl)carbamate] was tested. Which pest or weed control at 100 ppm did it give?
A: The pest or weed control at 100 ppm was ≥ 80%.

Q: Which pest or weed control at 100 ppm does the source give for COC(=O)Nc1cc(Br)cc(Br)c1NC(=O)c1cc(Br)nn1-c1ncccc1Cl [Example 40, methyl (3,5-dibromo-2-(3-bromo-1-(3-chloropyridin-2-yl)-1H-pyrazole-5-carboxamido)phenyl)carbamate] here?
A: The pest or weed control at 100 ppm was ≥ 80%.

Q: With CC(C)COC(=O)Nc1cc(Br)cc(Br)c1NC(=O)c1cc(Br)nn1-c1ncccc1Cl [Example 41, isobutyl (3,5-dibromo-2-(3-bromo-1-(3-chloropyridin-2-yl)-1H-pyrazole-5-carboxamido)phenyl)carbamate] as the molecule, how does the pest or weed control at 100 ppm read?
A: Its pest or weed control at 100 ppm is ≥ 80%.

Q: With COC(=O)Nc1cc(C(F)(F)F)cc(Cl)c1NC(=O)c1cc(Br)nn1-c1ncccc1Cl [Example 48, methyl (2-(3-bromo-1-(3-chloropyridin-2-yl)-1H-pyrazole-5-carboxamido)-3-chloro-5-(trifluoromethyl)phenyl)carbamate] as the molecule, how does the pest or weed control at 100 ppm read?
A: Its pest or weed control at 100 ppm is ≥ 80%.

Q: How did the pest or weed control at 100 ppm turn out when COC(=O)Nc1cc(C(F)(F)F)cc(Br)c1NC(=O)c1cc(Br)nn1-c1ncccc1Cl [Example 51, methyl (3-bromo-2-(3-bromo-1-(3-chloropyridin-2-yl)-1H-pyrazole-5-carboxamido)-5-(trifluoromethyl)phenyl)carbamate] was run?
A: Its pest or weed control at 100 ppm is ≥ 80%.

Q: How did the pest or weed control at 100 ppm turn out when COC(=O)Nc1cc([N+](=O)[O-])cc(C)c1NC(=O)c1cc(Br)nn1-c1ncccc1Cl [Example 55, Methyl (2-(3-bromo-1-(3-chloropyridin-2-yl)-1H-pyrazole-5-carboxamido)-3-methyl-5-nitrophenyl)carbamate] was run?
A: The pest or weed control at 100 ppm was ≥ 80%.

Q: COC(=O)Nc1cc(C#N)cc(C)c1NC(=O)c1cc(Cl)nn1-c1ncccc1Cl [Example 56, methyl (2-(3-chloro-1-(3-chloropyridin-2-yl)-1H-pyrazole-5-carboxamido)-5-cyano-3-methylphenyl)carbamate] was tested. Which pest or weed control at 100 ppm did it give?
A: The pest or weed control at 100 ppm was ≥ 80%.

Q: For COC(=O)Nc1cc(C#N)cc(C)c1NC(=O)c1cc(C#N)nn1-c1ncccc1Cl [Example 57, methyl (2-(1-(3-chloropyridin-2-yl)-3-cyano-1H-pyrazole-5-carboxamido)-5-cyano-3-methylphenyl)carbamate], which pest or weed control at 100 ppm is on record?
A: Its pest or weed control at 100 ppm is ≥ 80%.

Q: With COC(=O)Nc1cc(C#N)cc(C)c1NC(=O)c1cc(OC)nn1-c1ncccc1Cl [Example 58, methyl (2-(1-(3-chloropyridin-2-yl)-3-methoxy-1H-pyrazole-5-carboxamido)-5-cyano-3-methylphenyl)carbamate] as the molecule, how does the pest or weed control at 100 ppm read?
A: The pest or weed control at 100 ppm was ≥ 80%.

Q: COC(=O)Nc1cc(C#N)cc(C)c1NC(=O)c1cc(OCC(F)(F)F)nn1-c1ncccc1Cl [Example 60, methyl (2-(3-(2,2,2-trifluoroethoxy)-1-(3-chloropyridin-2-yl)-1H-pyrazole-5-carboxamido)-5-cyano-3-methylphenyl)carbamate] was tested. Which pest or weed control at 100 ppm did it give?
A: Its pest or weed control at 100 ppm is ≥ 80%.

Q: For COC(=O)Nc1cc(C#N)cc(C)c1NC(=O)c1cc(C(F)(F)F)nn1-c1ncccc1Cl [Example 61, methyl (2-(1-(3-chloropyridin-2-yl)-3-(trifluoromethyl)-1H-pyrazole-5-carboxamido)-5-cyano-3-methylphenyl)carbamate], which pest or weed control at 100 ppm is on record?
A: Its pest or weed control at 100 ppm is ≥ 80%.

Q: For COC(=O)Nc1cc(C#N)cc(C)c1NC(=O)c1cc(C(F)(F)F)nn1-c1ccccc1Cl [Example 62, methyl (2-(1-(2-chlorophenyl)-3-(trifluoromethyl)-1H-pyrazole-5-carboxamido)-5-cyano-3-methylphenyl)carbamate], which pest or weed control at 100 ppm is on record?
A: Its pest or weed control at 100 ppm is ≥ 80%.

Q: How did the pest or weed control at 100 ppm turn out when CCOC(=O)Nc1cc(C#N)cc(C)c1NC(=O)c1cc(Br)nn1-c1ncccc1Cl [Example 63, ethyl (2-(3-bromo-1-(3-chloropyridin-2-yl)-1H-pyrazole-5-carboxamido)-5-cyano-3-methylphenyl)carbamate] was run?
A: Its pest or weed control at 100 ppm is ≥ 80%.

Q: Cc1cc(C#N)cc(NC(=O)OCCCl)c1NC(=O)c1cc(Br)nn1-c1ncccc1Cl [Example 64, 2-chloroethyl (2-(3-bromo-1-(3-chloropyridin-2-yl)-1H-pyrazole-5-carboxamido)-5-cyano-3-methylphenyl)carbamate] was tested. Which pest or weed control at 100 ppm did it give?
A: The pest or weed control at 100 ppm was ≥ 80%.

Same assay, conditions: 96 h, read-out: percent control value

Q: COC(=O)Nc1cccc(C)c1NC(=O)c1cc(Br)nn1-c1ncccc1Cl [Example 54, Methyl (2-(3-bromo-1-(3-chloropyridin-2-yl)-1H-pyrazole-5-carboxamido)-3-methylphenyl)carbamate] was tested. Which pest or weed control at 100 ppm did it give?
A: The pest or weed control at 100 ppm was ≥ 80%.
